Experimental data reported in patent US20250302799A1, “PHARMACEUTICAL COMPOSITION CONTAINING FRAXETIN FOR PREVENTION OR TREATMENT OF ENDOMETRIOSIS” (Research & Business Foundation Sungkyunkwan University, priority 2024, published 2025).

Key:
endometrial cells [1] = test: Western blot analysis (cell line not stated); format: cell-based, human
Description: (§1) To analyze protein expression related to the development of endometriosis following fraxetin treatment, the inventors conducted western blot analysis.
(§2) Briefly, endometrial cells were treated with fraxetin in a dose-dependent manner or in combination with signaling pathway inhibitors. Total proteins were extracted from the treated cells, and protein quantification was performed using the Bradford protein assay (Bio-Rad, Hercules, CA, USA). The extracted proteins were then denatured at 95° C. for 5 minutes and subjected to electrophoresis on a 10% SDS/PAGE gel before being transferred to a nitrocellulose membrane. The membrane was subsequently incubated with primary and secondary antibodies, and target protein expression was analyzed using chemiluminescence detection reagents (Supersignal West Pico, Pierce, Rockford, IL, USA) with the ChemiDoc EQ system and Quantity One software (Bio-Rad).

VK2/E6E7 cells [2] = test: Wound healing / cell migration assay; format: cell-based, human; settings: vehicle 90%
Description: (§3) To measure the effects of fraxetin on endometrial cell migration, the inventors used a migration culture dish insert from Ibidi to analyze cell mobility.
(§4) In brief, endometrial cells (VK2/E6E7, End1/E6E7) were placed in compartmentalized wells within the culture dish and cultured until they filled the compartments. Afterward, the insert separating the compartments was removed, creating a 500 μm gap for cell migration. The cells were then cultured with medium containing fraxetin at 37° C. in a 5% CO2 incubator. Cell movement across the gap was observed using an optical microscope (DM3000, Leica) and photographed, and the migration distance was calculated and quantified.

End1/E6E7 cells [3] = test: Wound healing / cell migration assay; format: cell-based, human; settings: End1/E6E7, 50 μM fraxetin; vehicle 88%
Description: as §3, §4

VK2/E6E7 cells [4] = test: Western blot analysis of protein expression and phosphorylation; format: cell-based, human
Description: as §1, §2

End1/E6E7 cells [5] = test: as above; format: cell-based, human
Description: as §1, §2

endometriotic lesions = test: Gene expression in endometriotic lesion tissue of the animal model; format: in vivo, C57/BL6 mice
Description: Seven-week-old female C57/BL6 mice were purchased from DBL (Eumseong, South Korea). After a 7-day acclimation period, they were subcutaneously injected with 2 mg/50 μL of progesterone two days before surgery. After anesthetizing the mice, the […] was excised and autografted onto the peritoneum to induce endometriosis. After culturing for two weeks, the mice were randomly assigned to groups and administered either a vehicle as the control, fraxetin at 30mg/kg, or dienogest at 1 mg/kg orally for four weeks.

endometrial cells [6] = test: tiRNA expression by real-time PCR (cell line not stated); format: cell-based, human; settings: following fraxetin treatment
Description: To confirm the expression of tiRNA (tRNA-derived stress-induced RNAs) associated with the development of endometriosis, the inventors conducted real-time PCR.
First, information on candidate tiRNA sequences and mature tRNA sources was obtained from MINTbase (https://cm.jefferson.edu/MINTbase/). miRNA CDNA synthesis was performed using a cDNA kit (Agilent Technologies) to confirm tiRNA expression, with U6 snRNA used for normalization. For transfection of the tiRNA^His GTG inhibitor (5′-AACCGAGAGUACUAACCACUAUACGAUCACCGC-3′) (40 nM), Lipofectamine 2000 was used in Opti-MEM.

VK2/E6E7 cells [7] = test: Icam1/Vcam1 expression in endometriosis cell line; format: cell-based, human
Description: (§5) The endometrial cell lines VK2/E6E7, End1/E6E7, and normal endometrial stromal cell line T-HESC were purchased from ATCC. The cells were cultured in keratinocyte serum-free medium or DMEM/F12 1:1 medium containing 10% FBS for monolayer culture. Endometrial cell lines (VK2/E6E7,End1/E6E7) and normal cells were cultured at 37° C. in a 5% CO2 incubator.

End1/E6E7 cells [8] = test: Icam1/Vcam1 expression in endometriosis cell line; format: cell-based, human
Description: as §5

VK2/E6E7 cells [9] = test: Mitochondrial calcium concentration (rhod-2 staining); format: cell-based, human
Description: (§6) To examine intracellular or mitochondrial calcium concentration changes in endometrial cells induced by fraxetin, the inventors conducted experiments using 3 μM fluo-4 acetoxymethyl ester (AM) (Invitrogen) and 3 μM rhod-2.
(§7) First, cells were cultured in 6-well plates, treated with fraxetin in a dose-dependent manner (0 μM, 5 μM, 10 μM, 20 μM, 50 μM, 100 μM), and incubated at 37° C. in a 5% CO2 incubator for 48 hours. The cells were then detached using trypsin, washed with PBS, and stained with 3 μM fluo-4 or 3 μM rhod-2 for 20 minutes at 37° C. in a 5% CO2 incubator. After staining, the cells were washed with PBS, transferred to FACS tubes, and analyzed by flow cytometry to measure intracellular or mitochondrial calcium concentrations.

End1/E6E7 cells [10] = test: as above; format: cell-based, human
Description: as §6, §7

VK2/E6E7 cells [11] = test: Intracellular calcium concentration (fluo-4 staining); format: cell-based, human
Description: as §6, §7

VK2/E6E7 cells [12] = test: ROS generation by DCFH-DA flow cytometry; format: cell-based, human
Description: (§8) To assess the inhibitory effect of fraxetin on ROS generation in endometrial cells, the inventors used flow cytometry to measure ROS levels. In brief, endometriosis cells were stained with DCFH-DA (final concentration 10 μM) for 30 minutes and treated with 50 μM fraxetin in experimental groups, with or without 2 mM N-acetylcysteine (NAC; Cat No. A0737, Sigma), in a 37° C. incubator. Afterward, the cells were washed with PBS, and ROS levels were detected by measuring fluorescence DCF via flow cytometry.

End1/E6E7 cells [13] = test: ROS generation by DCFH-DA flow cytometry; format: cell-based, human
Description: as §8

COc1cc2ccc(=O)oc2c(O)c1O [fraxetin]
level of GRP78 compared to control (endometrial cells [1]; 20 μM and 50 μM fraxetin): 1.9 fold
JNK phosphorylation (remaining) (endometrial cells [1]; 50 μM fraxetin): below 50%
eIF2α phosphorylation (endometrial cells [1]; fraxetin-treated): tended to increase
wound closure (VK2/E6E7 cells [2]): 18%
wound closure (End1/E6E7 cells [3]): 7%
ERK1/2 phosphorylation (VK2/E6E7 cells [4]; 50 μM fraxetin, VK2/E6E7): 0.61 fold
p38 phosphorylation compared to control (VK2/E6E7 cells [4]; 50 μM fraxetin, second value, VK2/E6E7 assumed): 0.47 fold
IRE1α expression (VK2/E6E7 cells [4]; VK2/E6E7): 0.53 fold
expression of anti-apoptotic protein Bcl-xL (VK2/E6E7 cells [4]; VK2/E6E7): reduced
pro-apoptotic protein BAK (VK2/E6E7 cells [4]; VK2/E6E7): increased
pro-apoptotic protein BAX (VK2/E6E7 cells [4]; VK2/E6E7): increased
reduction of S6 phosphorylation (End1/E6E7 cells [5]; 20 μM fraxetin, End1/E6E7): 59%
ERK1/2 phosphorylation (End1/E6E7 cells [5]; 50 μM fraxetin, End1/E6E7): 0.51 fold
p38 phosphorylation compared to control (End1/E6E7 cells [5]; 50 μM fraxetin, first value, End1/E6E7 assumed): 0.61 fold
IRE1α expression (End1/E6E7 cells [5]; End1/E6E7): 1.7 fold
expression of anti-apoptotic protein Bcl-xL (End1/E6E7 cells [5]; End1/E6E7): reduced
inhibition of AKT phosphorylation compared to control (End1/E6E7 cells [5]; End1/E6E7): 57%
pro-apoptotic protein BAK (End1/E6E7 cells [5]; End1/E6E7): increased
pro-apoptotic protein BAX (End1/E6E7 cells [5]; End1/E6E7): increased
expression of adhesion-related genes (Icam1, Vcam1, Itga1, Itga5) (endometriotic lesions; endometriotic lesions): inhibited
expression of apoptosis-related genes (Bak1, Bax, Bad, Casp1) (endometriotic lesions; endometriotic lesions): increased
expression of endoplasmic reticulum stress-related genes (Hspa5, Elf2s1, Ern1) (endometriotic lesions; endometriotic lesions): increased
expression of mitochondrial function-related genes (Atp5me, Atp5pb, Atp5po) (endometriotic lesions; endometriotic lesions): decreased
mRNA expression of inflammation-related genes (Il4, Cxcl15, Il8, Il21, Tnf, Il4ra, Cxcr1, Cxcr2, Il18r, Il21r, Tnfrsfa) (endometriotic lesions; endometriotic lesions, compared to control group): significantly reduced
expression of Icam1 and Vcam1 within the lesion tissue (endometriotic lesions; fraxetin-treated group compared to control group): reduced
mRNA expression of tiRNA^GlyCCC, tiRNA^ValCAC, tiRNA^AspGTC and tiRNA^GluCTC (endometrial cells [6]): minimal change
tiRNA^HisGTG expression (endometrial cells [6]): increased by more than twofold
expression levels of Icam1 and Vcam1 (VK2/E6E7 cells [7]): significant decrease
expression levels of Icam1 and Vcam1 (End1/E6E7 cells [8]): significant decrease
mitochondrial calcium ion levels (VK2/E6E7 cells [9]; 20 μM fraxetin, second value, VK2/E6E7 assumed): 2.4 fold
mitochondrial calcium ion levels (VK2/E6E7 cells [9]; 50 μM fraxetin): slight increase
mitochondrial calcium ion levels (End1/E6E7 cells [10]; 20 μM fraxetin, first value, End1/E6E7 assumed): 1.7 fold
mitochondrial calcium ion levels (End1/E6E7 cells [10]; 50 μM fraxetin): slight increase
calcium levels (upregulated to) (VK2/E6E7 cells [11]): 300%
relative ROS generation (VK2/E6E7 cells [12]; VK2/E6E7, Example 7 comparison fraxetin vs dienogest): > 200%
ROS generation compared to control (VK2/E6E7 cells [12]; VK2/E6E7, fraxetin-treated): up to 1.5 fold
relative ROS generation (End1/E6E7 cells [13]; End1/E6E7, Example 7 comparison fraxetin vs dienogest): over 150%
ROS generation compared to control (End1/E6E7 cells [13]; End1/E6E7, fraxetin-treated): up to 1.5 fold
